According to ChEMBL document CHEMBL3046315, “Synthesis and Fungicidal Activity of New Thiophosphorylated Monoterpenoids and Related Compounds” (1996):

Legend:
Format in all cases: functional
Pythium [1] = assay: Fungicidal activity against Pythium sp. assessed as growth inhibition at 100 ppm after 5 days by agar dilution test; conditions: 120 h, read-out: GI
Pythium [2] = assay: Fungicidal activity against Pythium sp. assessed as growth inhibition at 10 ppm after 5 days by agar dilution test; conditions: 120 h, read-out: GI
Athelia rolfsii [3] = assay: Fungicidal activity against Athelia rolfsii assessed as growth inhibition at 100 ppm after 5 days by agar dilution test; conditions: Agroathelia rolfsii, 120 h; read-out: GI
Athelia rolfsii [4] = assay: Fungicidal activity against Athelia rolfsii assessed as growth inhibition at 10 ppm after 5 days by agar dilution test; conditions: Agroathelia rolfsii, 120 h; read-out: GI

Row | Structure (SMILES) | inhibition of growth at 100 ppm (Pythium [1]) | inhibition of growth at 10 ppm (Pythium [2]) | inhibition of growth at 100 ppm (Athelia rolfsii [3]) | inhibition of growth at 10 ppm (Athelia rolfsii [4])
1 | C=CCc1ccc(O)c(OC)c1 [EUGENOL] | 92.7% | 7.4% | 67.6% | 5.9%
2 | CCOP(=S)(Oc1cc(C)ccc1C(C)C)Oc1cc(C)ccc1C(C)C [DITHYMOL PHOSPHOROTHIONATE] | 58.4% |  | 30.3% | 
3 | CCOP(O)(=S)OCCC(C)CCC=C(C)C (configuration not stated) | 67% | 15.8% | 70.7% | 0%
4 | CCOP(O)(=S)Oc1cc(C)ccc1C(C)C (configuration not stated) | 55.7% |  | 46% | 
5 | CCOP(=S)(OCC)Oc1cc(C)ccc1C(C)C | 52.9% |  | 56.8% | 
6 | CCOP(O)(=S)Oc1cc(C(C)C)ccc1C (configuration not stated) [ETHYL ISOTHYMYL HYDROGENPHOSPHOROTHIONATE] | 71% | 10.4% | 54.9% | 
7 | Cc1ccc(C(C)C)cc1OP(=S)(Oc1cc(C(C)C)ccc1C)c1ccccc1 | 0% |  | 0% | 
8 | CCOP(O)(=S)OCCc1ccccc1 (configuration not stated) | 61.1% |  | 29.2% | 
9 | COP(=S)(OC)Oc1cc(C)ccc1C(C)C | 67.4% | 32.5% | 84.3% | 29.3%
10 | CCOP(=S)(OCC)Oc1cc(C(C)C)ccc1C | 19.8% |  | 58.2% | 
11 | COP(=S)(OC)OCCc1ccccc1 | 89.8% | 39.6% | 100% | 56.6%
12 | CCOP(=S)(Oc1cc(C(C)C)ccc1C)Oc1cc(C(C)C)ccc1C [DIISOTHYMOL PHOSPHOROTHIONATE] | 67% |  | 36.8% | 
13 | CCOP(=S)(OCCC(C)CCC=C(C)C)OCCC(C)CCC=C(C)C (configuration not stated) [DICITRONELLYL PHOSPHOROTHIONATE] | 64.5% |  | 30.3% | 
14 | C=CCc1ccc(OP(=S)(OCC)Oc2ccc(CC=C)cc2OC)c(OC)c1 [DIEUGENOL PHOSPHOROTHIONATE] | 34.6% |  | 6.1% | 
15 | COP(=S)(OC)Oc1cc(C(C)C)ccc1C | 61.1% | 22.8% | 85.2% | 37.5%
16 | C=CCc1ccc(OP(=S)(OC)OC)c(OC)c1 | 44.9% |  | 90.5% | 38.5%
17 | COP(=S)(OC)OCCC(C)CCC=C(C)C (configuration not stated) | 30% |  | 76.9% | 36.2%
18 | CC(C)=CCCC(C)CCO (configuration not stated) [CITRONELLOL] | 68.9% | 0% | 23.9% | 
19 | Cc1ccc(O)c(C(C)C)c1 [ISOTHYMOL] | 94.3% | 24.2% | 72.4% | 38%
20 | Cc1ccc(C(C)C)c(O)c1 [THYMOL] | 93% | 29.6% | 71% | 28.3%
21 | CCOP(=S)(OCC)OCCC(C)CCC=C(C)C (configuration not stated) | 10.2% |  | 31.3% | 
22 | CCOP(=S)(OCCc1ccccc1)OCCc1ccccc1 [DIPHENETHYL ETHYL PHOSPHOROTHIONATE] | 23.3% |  | 33.4% | 
23 | Cc1ccc(C(C)C)c(OP(=S)(Oc2cc(C)ccc2C(C)C)c2ccccc2)c1 | 1.3% |  | 0% | 
24 | CCOP(=S)(OCC)OCCc1ccccc1 | 68.8% |  | 95.1% | 42.3%
25 | C=CCc1ccc(OP(O)(=S)OCC)c(OC)c1 (configuration not stated) | 37.3% |  | 24.7% | 
26 | C=CCc1ccc(OP(=S)(OCC)OCC)c(OC)c1 | 34.3% |  | 60.2% | 
27 | OCCc1ccccc1 [PHENYLETHYL ALCOHOL] | 50.9% |  | 0% | 
28 | CC(C)OP(=O)(OC(C)C)SCc1ccccc1 [IPROBENFOS] | 88.5% | 41.7% | 100% | 68.8%
